In ChEMBL document CHEMBL4396930, “Identification of new dual FABP4/5 inhibitors based on a naphthalene-1-sulfonamide FABP4 inhibitor” (Bioorg Med Chem, 2019) one finds IC50, Activity and inhibition data, which are given here for 26 compounds.

Data set [1] addresses Fatty acid-binding protein, adipocyte (Homo sapiens, UniProt P15090). As to the kind of experiment: Displacement of 1,8-ANS from human recombinant full length N-terminal his-tagged FABP4 expressed in Escherichia coli BL21 (DE3) incubated for 3 mins by fluorescence based assay.
Data set [2] addresses Fatty acid-binding protein 5 (Homo sapiens, UniProt Q01469). Briefly: Displacement of 1,8-ANS from human recombinant full length N-terminal his-tagged FABP5 expressed in Escherichia coli BL21 (DE3) incubated for 3 mins by fluorescence based assay.
Data set [3] deals with 3T3-L1. Briefly: Cytotoxicity against mouse 3T3L1 cells assessed as reduction in cell viability at 30 to 60 uM incubated for 24 hrs by MTT assay. The data set is classed as cell-based. The following applies: 3t3-l1, 24 h. (In general: Tetrazolium assays rely on reduction of a dye to a coloured formazan, in cell work by metabolically active cells.)
The subject of data set [4] is RAW264.7. Briefly: Cytotoxicity against mouse RAW264.7 cells assessed as reduction in cell viability at 30 to 60 uM incubated for 24 hrs by MTT assay. Type of data set: cell-based. Particulars: raw264.7, 24 h.
Data set [5] has as its system RAW264.7. Briefly: Antiinflammatory activity against mouse RAW264.7 cells assessed as inhibition of LPS-induced MCP-1 gene expression level at 30 uM preincubated for 12 hrs followed by LPS addition and measured after 6 hrs by qRT PCR analysis relative to control. The data set is classed as functional.
Data set [6] concerns RAW264.7. Briefly: Antiinflammatory activity against mouse RAW264.7 cells assessed as inhibition of LPS-induced TNFalpha gene expression level at 30 uM preincubated for 12 hrs followed by LPS addition and measured after 6 hrs by qRT PCR analysis relative to control. The data set is classed as functional.
The target of data set [7] is Fatty acid-binding protein, heart (Homo sapiens, UniProt P05413). As to the kind of experiment: Displacement of 1,8-ANS from FABP3 (unknown origin) incubated for 3 mins by fluorescence based assay.
Chain of Fatty acid-binding protein, heart (P05413 whole entry): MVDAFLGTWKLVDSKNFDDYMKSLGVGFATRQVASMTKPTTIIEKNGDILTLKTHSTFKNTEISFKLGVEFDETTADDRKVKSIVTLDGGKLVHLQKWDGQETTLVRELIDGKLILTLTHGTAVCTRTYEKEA

Chain of Fatty acid-binding protein, adipocyte (P15090 whole entry): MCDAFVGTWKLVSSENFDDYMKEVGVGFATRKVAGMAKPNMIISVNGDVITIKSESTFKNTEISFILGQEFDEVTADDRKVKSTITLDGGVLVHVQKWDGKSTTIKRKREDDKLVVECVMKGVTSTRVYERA
Chain of Fatty acid-binding protein 5 (Q01469 whole entry): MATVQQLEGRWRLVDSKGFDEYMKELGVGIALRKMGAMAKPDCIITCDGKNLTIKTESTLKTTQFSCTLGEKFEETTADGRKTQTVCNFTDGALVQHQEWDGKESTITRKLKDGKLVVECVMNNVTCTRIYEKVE

As a reminder, the IC50 is the point on the concentration scale where inhibition reaches its midpoint. With `CCCCCCOc1ccc(S(=O)(=O)Nc2ccc(F)c(C(=O)O)c2)c2ccccc12`, the 50% inhibitory concentration (IC50) was 2430 nM in data set [1] and 4.17 µM in data set [2].

Turning to `COc1c(-c2ccc(Cl)c(Cl)c2)cc(S(=O)(=O)Nc2ccc(F)c(C(=O)O)c2)c2ccccc12`, in data set [1], the IC50 stood at 4380 nM.

With `O=C(O)c1cc(NS(=O)(=O)c2ccc(OCC34CC5CC(CC(C5)C3)C4)c3ccccc23)ccc1F`, the values for the IC50 in data set [1] and in data set [2] were 14800 nM and 4.61 µM, respectively.

For `O=C(O)c1cc(NS(=O)(=O)c2ccc(OC3CCCCC3)c3ccccc23)ccc1F`, the IC50 in data set [1] is 2200 nM; in data set [2], 7.66 µM.

Regarding `CCOc1ccc(S(=O)(=O)Nc2ccc(F)c(C(=O)O)c2)c2ccccc12`, the IC50 in data set [1] was found to be 2640 nM.

For `COc1c(-c2ccoc2)cc(S(=O)(=O)Nc2ccc(F)c(C(=O)O)c2)c2ccccc12`, the half-inhibitory concentration (IC50) in data set [1] was determined as 3530 nM.

Turning to `O=C(O)c1cc(NS(=O)(=O)c2ccc(OCCCC3CCCCC3)c3ccccc23)ccc1F`, the IC50 in data set [1] was 3590 nM; in data set [2], 3.63 µM.

Take `CCCCCCCCCCOc1ccc(S(=O)(=O)Nc2ccc(F)c(C(=O)O)c2)c2ccccc12`: the IC50 was found to be 4730 nM in data set [1] and 4.48 µM in data set [2].

Take `COc1c(-c2cccc(O)c2)cc(S(=O)(=O)Nc2ccc(F)c(C(=O)O)c2)c2ccccc12`: the IC50 in data set [1] came to 1890 nM.

Consider `COc1c(-c2ccc(O)cc2)cc(S(=O)(=O)Nc2ccc(F)c(C(=O)O)c2)c2ccccc12`, for which the IC50 in data set [1] worked out at 1190 nM.

For `COc1c(-c2ccccc2)cc(S(=O)(=O)Nc2ccc(F)c(C(=O)O)c2)c2ccccc12`, in data set [1], the IC50 came out at 1190 nM.

Turning to `O=C(O)c1cc(NS(=O)(=O)c2ccc(OCc3ccccc3)c3ccccc23)ccc1F`, the IC50 in data set [1] came to 3150 nM.

Consider `COc1c(-c2ccncc2)cc(S(=O)(=O)Nc2ccc(F)c(C(=O)O)c2)c2ccccc12`, for which the IC50 in data set [1] amounted to 3540 nM.

Consider `CCCCCOc1ccc(S(=O)(=O)Nc2ccc(F)c(C(=O)O)c2)c2ccccc12`, for which the IC50 in data set [1] amounted to 2990 nM; in data set [2], 8.32 µM.

Turning to `COc1c(-c2ccc(F)c(F)c2)cc(S(=O)(=O)Nc2ccc(F)c(C(=O)O)c2)c2ccccc12`, the IC50 in data set [1] amounted to 2980 nM.

Take `Cc1c(Cl)cccc1OCc1cc(=O)n2nc(-c3ccccc3)nc2[nH]1`: the Activity result in data set [3] and in data set [4] was “Toxic” throughout.

On to `O=C(O)c1cc(NS(=O)(=O)c2ccc(OC3CCCCCC3)c3ccccc23)ccc1F`, for which the IC50 worked out at 2370 nM in data set [1] and 3.3 µM in data set [2].

On to `COc1ccc(S(=O)(=O)Nc2ccc(F)c(C(=O)O)c2)c2ccccc12`, for which the Activity result in data set [3] and in data set [4] was “Non-Toxic” each time.

For the compound `CCCCCCCOc1ccc(S(=O)(=O)Nc2ccc(F)c(C(=O)O)c2)c2ccccc12`, the results for the IC50 in data set [1] and in data set [2] were 2300 nM and 2.76 µM, respectively.

For `COc1c(-c2ccc(F)cc2)cc(S(=O)(=O)Nc2ccc(F)c(C(=O)O)c2)c2ccccc12`, the IC50 in data set [1] stood at 1740 nM; in data set [2], 10 µM.

Take `CCCCCCCCCCCCOc1ccc(S(=O)(=O)Nc2ccc(F)c(C(=O)O)c2)c2ccccc12`: the IC50 in data set [1] came out at 24800 nM.

By inhibition is commonly meant the relative decrease from the control value, in per cent. Take `O=C(O)c1cc(NS(=O)(=O)c2ccc(OCCC3CCCCC3)c3ccccc23)ccc1F`: the Activity entry in data set [3] and in data set [4] was “Non-Toxic” throughout. For the same compound, the IC50 amounted to 1970 nM in data set [1], 4.85 µM in data set [2] and 55.6 µM in data set [7]. For the same compound, the inhibition at 30 µM in data set [5] is 29%; in data set [6] it was 24%.

Take `COc1c(-c2cccc(N)c2)cc(S(=O)(=O)Nc2ccc(F)c(C(=O)O)c2)c2ccccc12`: the IC50 in data set [1] turned out to be 1700 nM.

For the compound `O=C(O)c1cc(NS(=O)(=O)c2ccc(OCC3CCCCC3)c3ccccc23)ccc1F`, the IC50 in data set [1] came to 2410 nM; in data set [2], 8.12 µM.

On to `COc1c(-c2ccc(F)c(Cl)c2)cc(S(=O)(=O)Nc2ccc(F)c(C(=O)O)c2)c2ccccc12`, for which the Activity entry in data set [3] and in data set [4] was “Non-Toxic” each time. Moreover, the IC50 in data set [1] amounted to 1580 nM; in data set [7], 46.8 µM. Further, the inhibition at 30 µM was 32% in data set [5] and 23% in data set [6].

For the compound `CCCCCCCCOc1ccc(S(=O)(=O)Nc2ccc(F)c(C(=O)O)c2)c2ccccc12`, the IC50 came out at 4040 nM in data set [1] and 4.19 µM in data set [2].
